Test results from patent US9718790B2, “Triazine derivative and pharmaceutical composition having an analgesic activity comprising the same” (SHIONOGI & CO., LTD., priority 2010, dated 2017).

Target: human P2X3 receptor (Homo sapiens (Human), UniProt P56373)
Test: Evaluation of human P2X3 receptor inhibitory activity (Fluo-3 calcium fluorescence, FDSS 3000, ATP stimulation);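 also: stimulus was 50 nM ATP with fluorescence followed for 3 min, and the response per well was peak post-ATP fluorescence divided by the reading at measurement start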
Assay type: cell-based
Settings: C6BU-1 cells stably expressing human P2X3 receptor

Sequence of human P2X3 receptor (P56373 whole entry): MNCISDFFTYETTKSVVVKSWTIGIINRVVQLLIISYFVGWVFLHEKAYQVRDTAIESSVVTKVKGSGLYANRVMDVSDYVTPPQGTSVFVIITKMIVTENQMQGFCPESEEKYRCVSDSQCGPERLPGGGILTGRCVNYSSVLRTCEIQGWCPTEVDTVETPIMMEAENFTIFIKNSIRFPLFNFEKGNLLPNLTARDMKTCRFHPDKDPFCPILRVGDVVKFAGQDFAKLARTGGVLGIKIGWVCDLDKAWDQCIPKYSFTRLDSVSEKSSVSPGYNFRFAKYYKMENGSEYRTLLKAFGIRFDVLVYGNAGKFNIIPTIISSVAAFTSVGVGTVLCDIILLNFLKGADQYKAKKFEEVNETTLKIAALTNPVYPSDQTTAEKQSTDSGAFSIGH

Row | SMILES | IC50 (Fluo-3 fluorescence, FDSS 3000) | IC50
1 | Cc1ccc(Cn2c(Nc3ccc(OC(C)C)cc3)nc(=O)n(C(C)C)c2=O)cc1[N+](=O)[O-] [Compound I-0218] | 505 nM | 
2 | CC(C)Oc1ccc(Nc2nc(=O)n(C(C)C)c(=O)n2Cc2ccc(F)cc2)cc1C#N [Compound I-0227] | 910 nM | 
3 | CC(C)n1c(=O)nc(Nc2ccc3oc(=O)[nH]c3c2)n(Cc2ccc(Cl)cc2)c1=O [Compound I-0249] | 953 nM | 
4 | CC(C)Cn1c(=O)oc2cc(Nc3nc(=O)n(C(C)C)c(=O)n3Cc3ccc(Cl)cc3)ccc21 [Compound I-0268] | 861 nM | 
5 | CCOC(=O)CCCn1c(=O)[nH]/c(=N\c2ccc3oc(C)cc3c2)n(Cc2ccc(C)cc2)c1=O [Compound I-0574] |  | 15 nM
6 | CC(C)Oc1ccc(/N=c2\[nH]c(OCC(=O)O)nc(=O)n2Cc2ccc(Cl)cc2)cc1F [Compound I-0581] |  | 145 nM
7 | CC(C)Oc1ccc(/N=c2\[nH]c(OCC(=O)NCCO)nc(=O)n2Cc2ccc(Cl)cc2)cc1F [Compound I-0582] |  | 365 nM
8 | CC(C)Oc1ccc(/N=c2\[nH]c(OCC(=O)NN(C)C)nc(=O)n2Cc2ccc(Cl)cc2)cc1F [Compound I-0583] |  | 38 nM
9 | CC(C)Oc1ccc(/N=c2\[nH]c(OCC(=O)NC(CO)CO)nc(=O)n2Cc2ccc(Cl)cc2)cc1F [Compound I-0584] |  | 248 nM
10 | CC(C)Oc1ccc(/N=c2\[nH]c(OCC(=O)N(C)CCO)nc(=O)n2Cc2ccc(Cl)cc2)cc1F [Compound I-0586] |  | 611 nM
11 | CC(C)Oc1ccc(/N=c2\[nH]c(OCC(N)=O)nc(=O)n2Cc2ccc(Cl)cc2)cc1F [Compound I-0587] |  | 299 nM
12 | COC(=O)[C@H](C)Cn1c(=O)[nH]/c(=N\c2ccc(OC(C)C)c(C)c2)n(Cc2ccc(Cl)cc2)c1=O [Compound I-0589] |  | 6 nM
13 | CCOc1ccc(/N=c2\[nH]c(=O)n(C[C@@H](C)C(=O)OC)c(=O)n2Cc2ccc(Cl)cc2)cc1Cl [Compound I-0590] |  | 4 nM
14 | COC(=O)[C@@H](C)Cn1c(=O)[nH]/c(=N\c2ccc(OC(C)C)c(Cl)c2)n(Cc2ccc(C)cc2)c1=O [Compound I-0593] |  | 4 nM
15 | COC(=O)C(C)(C)Cn1c(=O)[nH]/c(=N\c2ccc3c(c2)cc(C)n3C)n(Cc2ccc(Cl)cc2)c1=O [Compound I-0597] |  | 507 nM
16 | CC(C)Oc1ccc(/N=c2\[nH]c(=O)n(C/C(N)=N/O)c(=O)n2Cc2ccc(Cl)cc2)cc1F [Compound I-0599] |  | 38 nM
17 | CC(C)Oc1ccc(/N=c2\[nH]c(=O)n(Cc3noc(=O)[nH]3)c(=O)n2Cc2ccc(Cl)cc2)cc1F [Compound I-0601] |  | 31 nM
18 | CCOc1ccc(/N=c2\[nH]c(=O)n(C[C@H](C)C(=O)OC)c(=O)n2Cc2ccc(Cl)cc2)cc1F [Compound I-0602] |  | 20 nM
19 | CC(C)Oc1ccc(/N=c2\[nH]c(=O)n(CCC(=O)NO)c(=O)n2Cc2ccc(Cl)cc2)cc1F [Compound I-0603] |  | 12 nM
20 | CC(C)Oc1ccc(/N=c2\[nH]c(=O)n([C@@H]3C[C@H]3C(=O)OC(C)(C)C)c(=O)n2Cc2ccc(Cl)cc2)cc1F [Compound I-0604] |  | 13 nM
21 | CCOc1ccc(/N=c2\[nH]c(=O)n(C[C@H](C)C(=O)OC)c(=O)n2Cc2ccc(C)cc2)cc1F [Compound I-0605] |  | 25 nM
22 | COC(=O)[C@@H](C)Cn1c(=O)[nH]/c(=N\c2ccc(OC(C)C)cc2)n(Cc2ccc(C)cc2)c1=O [Compound I-0606] |  | 21 nM
23 | COC(=O)NCCn1c(=O)[nH]/c(=N\c2ccc(OC(C)C)c(F)c2)n(Cc2ccc(Cl)cc2)c1=O [Compound I-0607] |  | 12 nM
24 | COC(=O)NCCCn1c(=O)[nH]/c(=N\c2ccc(OC(C)C)c(F)c2)n(Cc2ccc(Cl)cc2)c1=O [Compound I-0608] |  | 6 nM
25 | CCOc1ccc(/N=c2\[nH]c(=O)n(C[C@H](C)C(=O)O)c(=O)n2Cc2ccc(Cl)cc2)cc1F [Compound I-0609] |  | 31 nM
26 | CCOc1ccc(/N=c2\[nH]c(=O)n(C[C@H](C)C(=O)O)c(=O)n2Cc2ccc(C)cc2)cc1F [Compound I-0610] |  | 35 nM
27 | CC(C)Oc1ccc(/N=c2\[nH]c(=O)n([C@@H]3C[C@H]3C(=O)O)c(=O)n2Cc2ccc(Cl)cc2)cc1F [Compound I-0612] |  | 38 nM
